Tested on: 171881-019-R-J1-PDC tumor spheroid viability
Test: Anticancer human tumor 171881-019-R-J1-PDC patient-derived invasive breast carcinoma cell line growth inhibition [PI3K]
Conditions: spheroids with HUVEC and MSC; for IC50: curve of first compound; for viability, T/C: stronger effect = lower value; active = viability on the fitted dose curve at most 10% of control; inactive = the rest
Text: Combinatorial screen of targeted agents with the PI3K inhibitors inavolisib, alpelisib, duvelisib, and copanlisib in multi-cell type tumor spheroids
A high-throughput screen of multi-cell type tumor spheroids was designed to identify active combinations of targeted small molecules and PI3K pathway inhibitors. Complex spheroids include a stromal component modeled by human endothelial cells (HUVEC) and fibroblasts modeled by human mesenchymal stem cells (MSCs). The concentration ranges selected for each drug and investigational agent were based upon clinically achievable concentrations if the clinical Cmax of the agent was known.
Compounds. The drugs and investigational agents: inavolisib (NSC800729), alpelisib (NSC765974), duvelisib (NSC772469), copanlisib (NSC816437), ipatasertib (NSC767898), afuresertib (NSC778305), talazoparib (NSC767125), sapanisertib (NSC764658), selumetinib (NSC741078), tovorafenib (DAY101, NSC766906), vemurafenib (NSC761431), ravoxertinib (NSC781343), sotorasib (NSC818433), MRTX1133 (NSC 836407), abemaciclib (NSC 768073), palbociclib (NSC758247), venetoclax (NSC 766270), SY5609 (NSC837396), enzalutamide (NSC755605), and darolutamide (NSC825331), were obtained from the National Cancer Institute (NCI) Developmental Therapeutics Program Chemical Repository. The FDA-approved anticancer drug set is available from the NCI Developmental Therapeutics Program. […] The stock solutions were prepared in dimethyl sulfoxide (DMSO, Sigma-Aldrich, St. Louis, MO, cat. D2650) at 800-fold the tested concentration and stored at -70 degrees C prior to their use. All drugs and investigational agents were tested over a range starting from a high concentration at or near the clinical Cmax and decreasing in half-log increments. If the clinical Cmax for an agent had not been determined, the highest concentration tested was 10 microM.
Cell Culture. All cells were maintained in an incubator at 37 degrees C and 5% CO2 with 95% humidity. The PDC lines were cultured according to standard operating procedures established by the NCI PDMR (https://pdmr.cancer.gov/sops/default.htm). All PDCs were thawed and cultured in Matrigel-coated flasks prepared with a working solution of 1X Ham's F-12 nutrient mix, without supplementation (Invitrogen, Waltham, MA, cat. 11765054), 100 U/mL penicillin-streptomycin (Invitrogen, cat. 15140122), and 2.5% Matrigel (Corning Inc., Corning, NY, cat. 354248) for the first three passages. The 354836-022-R-J1-PDC, 475296-252-R-J1-PDC, and 997726-040-R-J2-PDC lines were cultured in 6A media, which includes advanced DMEM/F-12 (Thermo Fisher Scientific, cat. 12634028), 10 mM HEPES (Thermo Fisher Scientific, cat. 15630080), 1X GlutaMAX supplement (Thermo Fisher Scientific, cat. 35050061), 0.1 mg/mL primocin (InvivoGen, San Diego, CA, cat. ant-pm-2), 10% defined fetal bovine serum, heat inactivated (HyClone Laboratories Inc., Logan, UT, cat. SH30070.03HI), 50% L-WRN conditioned media (ATCC, cat. CRL-3276), 1.25 mM N-Acetyl-L-cysteine (Sigma-Aldrich, cat. A9165), 10 mM nicotinamide (Sigma-Aldrich, cat. N0636), 1X B-27 supplement (Thermo Fisher Scientific, cat. 17504044), 1X N-2 supplement (Thermo Fisher Scientific, cat. 17502048), and 10 microM Y-27632 dihydrochloride (Tocris Bioscience, Bristol, United Kingdom, cat. 1254). The 624824-186-R-J2-PDC line was cultured in 6C/Colon 1B media, which includes all 6A media components plus 50 ng/mL human EGF recombinant protein (Thermo Fisher Scientific, cat. PHG0311). […]
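Note: spheroids exposed to compound for 7 days before viability read.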
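Throughout, for viability, T/C: 100% = DMSO vehicle-treated spheroids.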

Cn1cnc2c(F)c(Nc3ccc(Br)cc3Cl)c(C(=O)NOCCO)cc21 + CC(Nc1ccc2c(c1)OCCn1cc(N3C(=O)OCC3C(F)F)nc1-2)C(N)=O
< 0.00949 µM: IC50 (second compound 0.0316 µM) | IC50 (second compound 0.1 µM) | IC50 (second compound 0.316 µM) | IC50 (second compound 1 µM)
active: viability, T/C (second compound 0.01 µM, first compound 3 µM) 10.1% | viability, T/C (second compound 0.0316 µM, first compound 3 µM) 6.34% | viability, T/C (second compound 0.1 µM, first compound 3 µM) 2.93% | viability, T/C (second compound 0.316 µM, first compound 0.949 µM) 4.97% | viability, T/C (second compound 0.316 µM, first compound 3 µM) 1.75% | viability, T/C (second compound 1 µM, first compound 0.3 µM) 8.33% | viability, T/C (second compound 1 µM, first compound 0.949 µM) 2.91% | viability, T/C (second compound 1 µM, first compound 3 µM) 1.25%
inactive: viability, T/C (second compound 0.00316 µM, first compound 0.00949 µM) 63.8% | viability, T/C (second compound 0.00316 µM, first compound 0.03 µM) 71.5% | viability, T/C (second compound 0.00316 µM, first compound 0.0949 µM) 64.9% | viability, T/C (second compound 0.00316 µM, first compound 0.3 µM) 56.4% | viability, T/C (second compound 0.00316 µM, first compound 0.949 µM) 34.3% | viability, T/C (second compound 0.00316 µM, first compound 3 µM) 15.4% | viability, T/C (second compound 0.01 µM, first compound 0.00949 µM) 60.4% | viability, T/C (second compound 0.01 µM, first compound 0.03 µM) 54.8% | viability, T/C (second compound 0.01 µM, first compound 0.0949 µM) 46.9% | viability, T/C (second compound 0.01 µM, first compound 0.3 µM) 40.9% | viability, T/C (second compound 0.01 µM, first compound 0.949 µM) 23.9% | viability, T/C (second compound 0.0316 µM, first compound 0.00949 µM) 44.8% | viability, T/C (second compound 0.0316 µM, first compound 0.03 µM) 38.7% | viability, T/C (second compound 0.0316 µM, first compound 0.0949 µM) 33.9% | viability, T/C (second compound 0.0316 µM, first compound 0.3 µM) 26.8% | viability, T/C (second compound 0.0316 µM, first compound 0.949 µM) 16.4% | viability, T/C (second compound 0.1 µM, first compound 0.00949 µM) 30.6% | viability, T/C (second compound 0.1 µM, first compound 0.03 µM) 27.1% | viability, T/C (second compound 0.1 µM, first compound 0.0949 µM) 24.2% | viability, T/C (second compound 0.1 µM, first compound 0.3 µM) 17.7% | viability, T/C (second compound 0.1 µM, first compound 0.949 µM) 9.75% | viability, T/C (second compound 0.316 µM, first compound 0.00949 µM) 20.9% | viability, T/C (second compound 0.316 µM, first compound 0.03 µM) 18.9% | viability, T/C (second compound 0.316 µM, first compound 0.0949 µM) 15.3% | viability, T/C (second compound 0.316 µM, first compound 0.3 µM) 11.7% | viability, T/C (second compound 1 µM, first compound 0.00949 µM) 16.9% | viability, T/C (second compound 1 µM, first compound 0.03 µM) 13.7% | viability, T/C (second compound 1 µM, first compound 0.0949 µM) 12.7%
0.071 µM: IC50 (second compound 0.01 µM)
0.422 µM: IC50 (second compound 0.00316 µM)
